# According to patent publication US20060173015A1, “Cyclohexyldiamines as selective alpha 1a/1d adrenoreceptor antagonists for the treatment of benign prostatic hypertrophy and lower urinary tract symptoms” (priority 2004, published 2006):
# Key:
# [1] = target: T1, α1a-AR (Homo sapiens, UniProt P35348); assay: α1-Adrenergic receptor radio-ligand (125I-HEAT) binding assay, α1a subtype; conditions: COS-7 cell membranes, 125I-HEAT
# T1 construct: expressed in transfected cells; host or cells: COS-7
# T1 sequence (P35348 1-466): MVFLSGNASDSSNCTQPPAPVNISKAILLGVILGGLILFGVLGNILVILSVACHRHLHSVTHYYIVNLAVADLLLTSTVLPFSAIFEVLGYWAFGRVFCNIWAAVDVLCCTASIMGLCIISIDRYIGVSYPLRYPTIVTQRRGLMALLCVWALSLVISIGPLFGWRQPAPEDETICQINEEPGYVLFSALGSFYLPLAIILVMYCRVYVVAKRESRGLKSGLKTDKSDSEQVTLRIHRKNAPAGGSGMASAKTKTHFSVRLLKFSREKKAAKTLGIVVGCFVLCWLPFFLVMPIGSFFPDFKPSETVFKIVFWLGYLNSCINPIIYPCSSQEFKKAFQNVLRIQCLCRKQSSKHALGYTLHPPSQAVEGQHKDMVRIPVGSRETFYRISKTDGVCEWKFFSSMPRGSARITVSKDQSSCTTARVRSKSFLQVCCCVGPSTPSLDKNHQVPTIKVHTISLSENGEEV
# How it was run: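 Membranes from COS-7 cells transfected with the α1a-AR were incubated with 50 pM final ¹²⁵I-HEAT and test compound (1 pM–10 μM final, half-log steps) in Tris/EDTA/NaCl buffer pH 7.4 for 1 hr at rt. Bound radioactivity was counted after GF/C filtration, in triplicate.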
# [2] = system: MAP; assay: Phenylephrine-induced MAP in a conscious canine model; type: in vivo; conditions: conscious dog
# Procedure: In-Vivo Evaluation of α1-Adrenergic Antagonists on IUP and MAP in a Conscious Canine Model
# An anesthetized dog was fitted with a balloon catheter for the measurement of changes in prostatic IUP and with a number of implanted pressure transducers and telemetry transmitters for measuring MAP.
# The pressor effects of challenge doses […] of the α-adrenergic agonist phenylephrine upon IUP and MAP were measured before and at various time points after a single dose (p.o.) of an α-adrenergic antagonist test compound (Compound 69) of the present invention.
# Each treatment group was dosed with a test compound (0.1, 0.3, 1.0 and 3.0 mg/kg) in four separate experiments. The first challenge dose of phenylephrine for each treatment group was administered at the time of the test compound dose (time 0). The value for the first challenge dose represents an average of up to three challenge doses administered prior to time 0.
# Subsequent challenge doses for all treatment groups were administered at 30 min. then one hour and two hours after time 0.
# The final challenge doses for the 0.1 and 0.3 mg/kg groups were administered at four and six hours after time 0. The final challenge doses for the 1.0 mg/kg group were administered at four, six and eight hours after time 0. The final challenge doses for the 3.0 mg/kg group were administered at four, six, 12 and 24 hours after time 0.
# A pressure transducer and telemetry transmitter (DSI TA11PA-D70 35 cm, Data Sciences International, St. Paul, Minn.) were implanted according to directions in “PA Device Surgical Manual” provided by the manufacturer.
# A test compound was administered via the cephalic or saphenous vein using an appropriately sized IV catheter (Surflo, Terumo Medical Corporation or equivalent).
# Prior to test compound administration, IUP and MAP responses to an individualized dose of phenylephrine (either 10 or 15 μg/kg IV, depending on the individual animal's response) was repeated 2 to 3 times to establish a baseline response. After test compound administration, the individualized phenylephrine dose was administered to each animal at predetermined intervals over a period of up to 24 hours.
# Data for phenylephrine-induced changes in IUP and MAP were tabulated for each treatment group and each experiment. A mean value and standard deviation for the phenylephrine-induced changes to the effect of a test compound on IUP and MAP at each dose was calculated and tabulated for each treatment group over the length of the study.
structure (smiles),measurement,setting,value
"COc1ccc(S(=O)(=O)N[C@H]2CC[C@@H](N3CCN(c4ccccc4OCC(F)(F)F)CC3)CC2)cc1OC [Cpd 69, 3,4-Dimethoxy-N-cis-(4-{4-[2-(2,2,2-trifluoro-ethoxy)-phenyl]-piperazin-1-yl}-cyclohexyl)-benzenesulfonamide]",Ki,[1],1.2 nM
same,"MAP, normalized % of baseline (mean)","[2]; 0.1 mg/kg p.o., 0 hrs (baseline)",100%
same,"MAP, normalized % of baseline (mean)","[2]; 0.1 mg/kg p.o., 0.5 hrs after dose",87.7%
same,"MAP, normalized % of baseline (mean)","[2]; 0.1 mg/kg p.o., 1 hrs after dose",93.3%
same,"MAP, normalized % of baseline (mean)","[2]; 0.1 mg/kg p.o., 2 hrs after dose",80.1%
same,"MAP, normalized % of baseline (mean)","[2]; 0.1 mg/kg p.o., 4 hrs after dose",89.7%
same,"MAP, normalized % of baseline (mean)","[2]; 0.1 mg/kg p.o., 6 hrs after dose",91.0%
same,"MAP, normalized % of baseline (mean)","[2]; 0.3 mg/kg p.o., 0 hrs (baseline)",100%
same,"MAP, normalized % of baseline (mean)","[2]; 0.3 mg/kg p.o., 0.5 hrs after dose",64.9%
same,"MAP, normalized % of baseline (mean)","[2]; 0.3 mg/kg p.o., 1 hrs after dose",59.3%
same,"MAP, normalized % of baseline (mean)","[2]; 0.3 mg/kg p.o., 2 hrs after dose",67.7%
same,"MAP, normalized % of baseline (mean)","[2]; 0.3 mg/kg p.o., 4 hrs after dose",85.6%
same,"MAP, normalized % of baseline (mean)","[2]; 0.3 mg/kg p.o., 6 hrs after dose",103.9%
same,"MAP, normalized % of baseline (mean)","[2]; 1.0 mg/kg p.o., 0 hrs (baseline)",100%
same,"MAP, normalized % of baseline (mean)","[2]; 1.0 mg/kg p.o., 0.5 hrs after dose",47.3%
same,"MAP, normalized % of baseline (mean)","[2]; 1.0 mg/kg p.o., 1 hrs after dose",37.2%
same,"MAP, normalized % of baseline (mean)","[2]; 1.0 mg/kg p.o., 2 hrs after dose",52.8%
same,"MAP, normalized % of baseline (mean)","[2]; 1.0 mg/kg p.o., 4 hrs after dose",61.3%
same,"MAP, normalized % of baseline (mean)","[2]; 1.0 mg/kg p.o., 6 hrs after dose",76.6%
same,"MAP, normalized % of baseline (mean)","[2]; 1.0 mg/kg p.o., 8 hrs after dose",87.8%
same,"MAP, normalized % of baseline (mean)","[2]; 3.0 mg/kg p.o., 0 hrs (baseline)",100%
same,"MAP, normalized % of baseline (mean)","[2]; 3.0 mg/kg p.o., 0.5 hrs after dose",43.4%
same,"MAP, normalized % of baseline (mean)","[2]; 3.0 mg/kg p.o., 1 hrs after dose",19.7%
same,"MAP, normalized % of baseline (mean)","[2]; 3.0 mg/kg p.o., 2 hrs after dose",21.7%
same,"MAP, normalized % of baseline (mean)","[2]; 3.0 mg/kg p.o., 4 hrs after dose",39.8%
same,"MAP, normalized % of baseline (mean)","[2]; 3.0 mg/kg p.o., 6 hrs after dose",50.2%
same,"MAP, normalized % of baseline (mean)","[2]; 3.0 mg/kg p.o., 12 hrs after dose",80.2%
same,"MAP, normalized % of baseline (mean)","[2]; 3.0 mg/kg p.o., 24 hrs after dose",95.1%
